Assay results from US9708334B2, “Substituted 2,4,5,6-tetrahydropyrrolo[3,4-c]pyrazole and 4,5,6,7-tetrahydro-2H-pyrazolo[4,3-c]pyridine compounds as GlyT1 inhibitors” (DART NEUROSCIENCE (CAYMAN) LTD., priority 2014, dated 2017).

biological target: T1, GlyT1 (Homo sapiens, UniProt P48067); assay: Glycine Transporter 1 (GlyT1) uptake assay, scintillation proximity assay of [14C]-glycine uptake; format: cell-based; settings: SPA, four parameter logistic fit, read-out: GlyT1 (pIC50) (converted)
T1 construct: expressed in transfected cells
T1 sequence (P48067 1-706): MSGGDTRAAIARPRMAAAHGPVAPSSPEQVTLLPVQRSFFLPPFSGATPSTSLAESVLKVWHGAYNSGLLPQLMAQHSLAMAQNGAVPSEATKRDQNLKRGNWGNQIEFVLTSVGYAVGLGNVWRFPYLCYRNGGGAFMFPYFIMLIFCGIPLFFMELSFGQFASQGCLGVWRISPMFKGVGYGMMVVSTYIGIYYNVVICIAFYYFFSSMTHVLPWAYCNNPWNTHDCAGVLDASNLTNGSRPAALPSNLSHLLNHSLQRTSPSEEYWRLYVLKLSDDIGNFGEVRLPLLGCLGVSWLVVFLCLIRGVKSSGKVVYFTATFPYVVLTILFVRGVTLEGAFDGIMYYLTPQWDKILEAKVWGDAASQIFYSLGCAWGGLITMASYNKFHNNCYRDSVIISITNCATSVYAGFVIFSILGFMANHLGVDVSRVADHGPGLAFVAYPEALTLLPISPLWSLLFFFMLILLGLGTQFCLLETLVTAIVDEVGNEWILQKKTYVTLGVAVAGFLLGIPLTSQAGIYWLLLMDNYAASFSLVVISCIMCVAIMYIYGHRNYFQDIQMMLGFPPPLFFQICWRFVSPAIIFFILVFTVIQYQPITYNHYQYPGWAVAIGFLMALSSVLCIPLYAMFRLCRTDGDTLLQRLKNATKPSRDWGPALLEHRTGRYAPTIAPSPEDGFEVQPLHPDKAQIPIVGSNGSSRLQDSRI
Procedure, shortened: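 IC50 values derive from four-parameter logistic curves fitted to dose-response data. Uptake of [14C]-glycine measured in scintillation proximity format.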

Row | IC50 | SMILES
1 | 1000 to 10000 nM | Cc1cccc(-c2ccc(C#N)cc2C(=O)N2Cc3cn(-c4ccnc(C)c4)nc3C2)c1 [Example 564, 4-(3-Methylphenyl)-3-[2-(2-methylpyridin-4-yl)-2H 4H 5H 6H-pyrrolo[3,4-c]pyrazole-5-carbonyl]benzonitrile]
2 | 1000 to 10000 nM | Cc1cc(-n2cc3c(n2)CN(C(=O)c2cc(C#N)ccc2-c2cccc(C(F)(F)F)c2)C3)ccn1 [Example 565, 3-[2-(2-Methylpyridin-4-yl)-2H 4H 5H 6H-pyrrolo[3,4-c]pyrazole-5-carbonyl]-4-[3-(trifluoromethyl)phenyl]benzonitrile]
3 | < 100 nM | CS(=O)(=O)c1ccc(-c2ccccc2)c(C(=O)N2Cc3cn(-c4ccc(F)cn4)nc3C2)c1 [Example 566, 5-Fluoro-2-[5-(5-methanesulfonyl-2-phenylbenzoyl)-2H 4H 5H 6H-pyrrolo[3,4-c]pyrazol-2-yl]pyridine]
4 | < 100 nM | CCS(=O)(=O)c1ccc(-c2ccccc2)c(C(=O)N2Cc3cn(-c4ccnc(C)c4)nc3C2)c1 [Example 567, 4-{5-[5-(Ethanesulfonyl)-2-phenylbenzoyl]-2H 4H 5H 6H-pyrrolo[3,4-c]pyrazol-2-yl}-2-methylpyridine]
5 | < 100 nM | CCS(=O)(=O)c1ccc(-c2cccc(F)c2)c(C(=O)N2Cc3cn(-c4ccnc(C)c4)nc3C2)c1 [Example 568]
6 | < 100 nM | CCS(=O)(=O)c1ccc(-c2cc(F)cc(F)c2)c(C(=O)N2Cc3cn(-c4ccnc(C)c4)nc3C2)c1 [Example 569, 4-{5-[2-(3 5-Difluorophenyl)-5-(ethanesulfonyl)benzoyl]-2H 4H 5H 6H-pyrrolo[3,4-c]pyrazol-2-yl}-2-methylpyridine]
7 | < 100 nM | CCS(=O)(=O)c1ccc(-c2ccccc2)c(C(=O)N2Cc3cn(-c4cncc(F)c4)nc3C2)c1 [Example 570, 3-{5[5-(Ethanesulfonyl)-2-phenylbenzoyl]-2H 4H 5H 6H-pyrrolo[3,4-c]pyrazol-2-yl}-5-fluoropyridine]
8 | < 100 nM | CCS(=O)(=O)c1ccc(-c2cccc(F)c2)c(C(=O)N2Cc3cn(-c4cncc(F)c4)nc3C2)c1 [Example 571]
9 | 100 to 1000 nM | CCS(=O)(=O)c1ccc(-c2cc(F)cc(F)c2)c(C(=O)N2Cc3cn(-c4cncc(F)c4)nc3C2)c1 [Example 572, 3-{5-[2-(3 5-Difluorophenyl)-5-(ethanesulfonyl)benzoyl]-2H 4H 5H 6H-pyrrolo[3,4-c]pyrazol-2-yl}-5-fluoropyridine]
10 | 1000 to 10000 nM | CC(Oc1ccc(S(C)(=O)=O)cc1C(=O)N1CCc2n[nH]c(-c3ccccc3)c2C1)C(F)(F)F (centres unmarked) [Example 573, 5-{5-Methanesulfonyl-2-[(1 1 1-trifluoropropan-2-yl)oxy]benzoyl}-3-phenyl-2H 4H 5H 6H 7H-pyrazolo[4,3-c]pyridine]
11 | < 100 nM | CC(C)COc1ccc(S(C)(=O)=O)cc1C(=O)N1Cc2cn(-c3ccc(F)cc3)nc2C1 [Example 574, 2-(4-Fluorophenyl)-5-[5-methanesulfonyl-2-(2-methylpropoxy)benzoyl]-2H 4H 5H 6H-pyrrolo[3,4-c]pyrazole]
12 | < 100 nM | COc1c(C#N)ccc(OC(C)C(F)(F)F)c1C(=O)N1CCc2c(cnn2-c2ccc(F)cc2F)C1 (centres unmarked) [Example 575, 3-[1-(2 4-Difluorophenyl)-1H 4H 5H 6H 7H-pyrazolo[4,3-c]pyridine-5-carbonyl]-2-methoxy-4-[(1 1 1-trifluoropropan-2-yl)oxy]benzonitrile]
13 | < 100 nM | COc1c(C#N)ccc(OC(C)C(F)(F)F)c1C(=O)N1CCc2nn(-c3ccc(F)cc3)c(C(F)(F)F)c2C1 (centres unmarked) [Example 576, 3-[2-(4-Fluorophenyl)-3-(trifluoromethyl)-2H 4H 5H 6H 7H-pyrazolo[4,3-c]pyridine-5-carbonyl]-2-methoxy-4-[(1 1 1-trifluoropropan-2-yl)oxy]benzonitrile]
14 | 100 to 1000 nM | COc1c(C#N)ccc(OC(C)C(F)(F)F)c1C(=O)N1CCc2c(c(C(F)(F)F)nn2-c2ccc(F)cc2)C1 (centres unmarked) [Example 577, 3-[1-(4-Fluorophenyl)-3-(trifluoromethyl)-1H 4H 5H 6H 7H-pyrazolo[4,3-c]pyridine-5-carbonyl]-2-methoxy-4-[(1 1 1-trifluoropropan-2-yl)oxy]benzonitrile]
